We go through 19 compounds from patent US8633206B2, “Pyrrolo[2,3-D]pyrimidine compounds” (Pfizer Inc., priority 2009, dated 2014).

pIC50: −log10 of the molar value.

Holding throughout (format): biochemical
One assay addresses JAK3 (Homo sapiens (Human), UniProt P52333). Briefly: JAK enzymatic assay (peptide mobility shift), JAK3. As to conditions: recombinant JAK3 1 nM, JAKtide peptide, 90 minutes. The method, then:
(§1) Recombinant JAK1 (Catalog Number PV4775), JAK2 (Catalog Number PV4210) and JAK3 (Catalog Number PV3855) were purchased from (Invitrogen Corporation, Madison, Wis.). […] Adenosine 5′-triphosphate (ATP) was obtained from (Sigma Chemical Company, St. Louis, Mo.). […] Coating Reagent 3 was purchased from (Caliper Life Sciences, Hopkinton, Mass.).
(§2) Compounds were diluted serially in 100% dimethyl sulfoxide and tested in an 11 point dose response in duplicate or quadruplicate (200 nl of compound/DMSO was added per 10 L reaction). […] The assay was run for 240 minutes for JAK1, 150 minutes for JAK2, 90 minutes for JAK3 and 70 minutes for Tyk2. […] The plates were placed on a LabChip 3000 (LC3000) instrument from (Caliper Life Sciences) to measure the formation of phosphorylated peptide. Data was analyzed using Hits Well Analyzer Software from (Caliper Life Sciences) to obtain the amount of product formed.
(§3) Data was then imported into an internal application where each data point is expressed as % inhibition based on uninhibited and no enzyme controls. Dose-response data is then fit using a 4 parameter logistic equation (Equation 1) to determine an IC50.

For a further assay, the target named is JAK2 (Homo sapiens (Human), UniProt O60674). The assay is described as follows: JAK enzymatic assay (peptide mobility shift), JAK2. As to conditions: recombinant JAK2 2 nM, JAKtide peptide, 150 minutes.
Excerpt: Recombinant JAK1 (Catalog Number PV4775), JAK2 (Catalog Number PV4210) and JAK3 (Catalog Number PV3855) were purchased from (Invitrogen Corporation, Madison, Wis.). Tyk2 (His-Tyk2 (888-1182, C936S, C1142S)) used in this study was expressed and purified at Pfizer Laboratories. Adenosine 5′-triphosphate (ATP) was obtained from (Sigma Chemical Company, St. Louis, Mo.). […] Coating Reagent 3 was purchased from (Caliper Life Sciences, Hopkinton, Mass.).
A peptide mobility shift assay was used to quantify the phosphorylation of the JAKtide (JAK2 and JAK3) or the IRS-1 peptide (JAK1 and Tyk2). Reactions were carried out in a 384-well plate (Matrical MP-101) in a 10 L total volume. […] Compounds were diluted serially in 100% dimethyl sulfoxide and tested in an 11 point dose response in duplicate or quadruplicate (200 nl of compound/DMSO was added per 10 L reaction). The reactions were initiated by the addition of enzyme to the final concentration of 2 nM JAK2, 1 nM JAK3, 12 nM Tyk2 or 20 nM JAK1. The assay was run for 240 minutes for JAK1, 150 minutes for JAK2, 90 minutes for JAK3 and 70 minutes for Tyk2. The assays were stopped at the specified times with 20 uL of 140 mM HEPES, 22.5 mM EDTA and 0.15% Coating Reagent 3. The plates were placed on a LabChip 3000 (LC3000) instrument from (Caliper Life Sciences) to measure the formation of phosphorylated peptide. Data was analyzed using Hits Well Analyzer Software from (Caliper Life Sciences) to obtain the amount of product formed.
as §3

A further assay has as its target JAK1 (Homo sapiens (Human), UniProt P23458). The assay is described as follows: JAK enzymatic assay (peptide mobility shift), JAK1. As to conditions: recombinant JAK1 20 nM, IRS-1 peptide, 240 minutes. As for the experimental part:
as §1, §2, §3

For orientation: pIC50 means −log10 of the IC50, conventionally taken in molar units.

Chain of JAK3 (P52333 781-1124): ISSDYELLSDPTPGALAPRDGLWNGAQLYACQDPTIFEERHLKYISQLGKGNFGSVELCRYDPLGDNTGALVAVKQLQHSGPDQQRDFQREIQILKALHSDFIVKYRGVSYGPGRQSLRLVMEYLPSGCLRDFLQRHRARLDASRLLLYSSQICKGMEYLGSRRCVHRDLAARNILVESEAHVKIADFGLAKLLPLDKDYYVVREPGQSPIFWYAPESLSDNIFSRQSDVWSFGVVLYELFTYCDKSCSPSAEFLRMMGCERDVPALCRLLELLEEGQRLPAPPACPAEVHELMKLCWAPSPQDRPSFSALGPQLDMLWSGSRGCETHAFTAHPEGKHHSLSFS
Chain of JAK1 (P23458 whole entry): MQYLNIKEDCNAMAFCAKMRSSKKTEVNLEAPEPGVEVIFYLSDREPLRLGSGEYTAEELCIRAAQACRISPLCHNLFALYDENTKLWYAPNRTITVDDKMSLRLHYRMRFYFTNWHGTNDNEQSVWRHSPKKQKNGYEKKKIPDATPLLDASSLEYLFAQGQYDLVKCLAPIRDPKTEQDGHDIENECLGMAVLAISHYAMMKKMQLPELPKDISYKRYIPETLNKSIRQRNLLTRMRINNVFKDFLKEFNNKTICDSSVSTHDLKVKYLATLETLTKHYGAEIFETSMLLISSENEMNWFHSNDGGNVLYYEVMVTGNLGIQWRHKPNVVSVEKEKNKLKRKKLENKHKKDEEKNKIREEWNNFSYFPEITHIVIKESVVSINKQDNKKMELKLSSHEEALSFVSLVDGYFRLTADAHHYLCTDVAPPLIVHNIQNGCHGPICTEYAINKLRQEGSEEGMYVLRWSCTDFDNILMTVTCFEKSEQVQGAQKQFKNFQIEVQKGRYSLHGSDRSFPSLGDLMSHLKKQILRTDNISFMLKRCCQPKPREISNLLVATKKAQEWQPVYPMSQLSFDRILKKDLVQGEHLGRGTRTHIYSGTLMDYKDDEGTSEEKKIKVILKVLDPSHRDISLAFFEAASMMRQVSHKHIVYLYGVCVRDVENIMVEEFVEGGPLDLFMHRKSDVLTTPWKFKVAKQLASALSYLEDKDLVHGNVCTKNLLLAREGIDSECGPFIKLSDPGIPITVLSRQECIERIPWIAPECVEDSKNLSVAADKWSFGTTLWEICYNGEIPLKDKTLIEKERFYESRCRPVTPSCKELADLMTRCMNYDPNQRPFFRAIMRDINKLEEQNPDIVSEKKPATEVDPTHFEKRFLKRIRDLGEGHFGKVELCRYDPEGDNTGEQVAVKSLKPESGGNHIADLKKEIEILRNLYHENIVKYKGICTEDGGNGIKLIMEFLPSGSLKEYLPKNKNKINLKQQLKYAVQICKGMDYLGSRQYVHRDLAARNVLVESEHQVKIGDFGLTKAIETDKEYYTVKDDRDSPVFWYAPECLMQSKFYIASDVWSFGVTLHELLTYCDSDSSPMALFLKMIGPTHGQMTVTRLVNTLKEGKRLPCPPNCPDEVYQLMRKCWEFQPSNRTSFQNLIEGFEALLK
Chain of JAK2 (O60674 808-1132): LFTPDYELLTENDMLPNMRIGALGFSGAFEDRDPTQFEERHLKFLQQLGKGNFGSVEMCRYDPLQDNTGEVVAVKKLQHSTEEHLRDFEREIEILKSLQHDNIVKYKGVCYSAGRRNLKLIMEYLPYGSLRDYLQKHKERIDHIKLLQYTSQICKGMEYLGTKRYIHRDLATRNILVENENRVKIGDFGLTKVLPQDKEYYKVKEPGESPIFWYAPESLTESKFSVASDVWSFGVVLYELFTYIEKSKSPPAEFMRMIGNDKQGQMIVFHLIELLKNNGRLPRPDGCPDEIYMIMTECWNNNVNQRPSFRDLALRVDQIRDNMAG

Regarding `CN(c1ncnc2[nH]ccc12)[C@H]1CC[C@H](CS(=O)(=O)N2CCCC(O)(COc3cccc(F)c3)C2)CC1` (stereo partly drawn) [Example 19, 3-[(3-fluorophenoxy)-methyl]-1-[({trans-4-[methyl(7H-pyrrolo[2,3-d]pyrimidin-4-yl)amino]-cyclohexyl}methyl)sulfonyl]-piperidin-3-ol], the negative logarithm of the IC50 (pIC50) at JAK3 is 6.31; on JAK2, 7.33; at JAK1, 7.83.

In the case of `CC(=O)NCC1CCCN(S(=O)(=O)C[C@H]2CC[C@H](N(C)c3ncnc4[nH]ccc34)CC2)C1` (stereo partly drawn) [Example 20, N-({1-[({trans-4-[methyl-(7H-pyrrolo[2,3-d]-pyrimidin-4-yl)amino]-cyclohexyl}methyl)sulfonyl]-piperidin-3-yl}methyl)-acetamide], the pIC50 was 6.72 on JAK3, 7.82 at JAK2 and 8.78 on JAK1.

Take `CN(c1ncnc2[nH]ccc12)[C@H]1CC[C@H](CS(=O)(=O)N2CCCC(Cc3ccccn3)C2)CC1` (stereo partly drawn) [Example 21, N-methyl-N-[trans-4-({[3-(pyridin-2-ylmethyl)-piperidin-1-yl]sulfonyl}-methyl)cyclohexyl]-7H-pyrrolo[2,3-d]pyrimidin-4-amine]: the pIC50 was 6.23 on JAK3, 7.48 at JAK2 and 7.95 at JAK1.

Regarding `CN(c1ncnc2[nH]ccc12)[C@H]1CC[C@H](CS(=O)(=O)N2CC[C@H](O)[C@H](O)C2)CC1` [Example 22, (3R,4S)-1-[({trans-4-[methyl(7H-pyrrolo[2,3-d]pyrimidin-4-yl)amino]-cyclohexyl}methyl)sulfonyl]-piperidine-3,4-diol], the pIC50 is 6.86 on JAK3, 7.49 at JAK2 and 7.94 at JAK1.

Regarding `CN(c1ncnc2[nH]ccc12)[C@H]1CC[C@H](CS(=O)(=O)N2CCC(C)(O)CC2)CC1` [Example 23, 4-methyl-1-[({trans-4-[methyl(7H-pyrrolo[2,3-d]pyrimidin-4-yl)amino]-cyclohexyl}methyl)sulfonyl]-piperidin-4-ol], the results for the negative-log IC50 (pIC50) at JAK3, at JAK2 and at JAK1 were 6.61, 7.38 and 8.11, respectively.

In the case of `CN(c1ncnc2[nH]ccc12)[C@H]1CC[C@H](CS(=O)(=O)N2CCC(O)(c3ccccc3)CC2)CC1` [Example 24, 1-[({trans-4-[methyl(7H-pyrrolo[2,3-d]pyrimidin-4-yl)amino]cyclohexyl}methyl)-sulfonyl]-4-phenyl-piperidin-4-ol], the pIC50 is 7.43 on JAK3, 8.13 at JAK2 and 8.30 at JAK1.

As for `CN(c1ncnc2[nH]ccc12)[C@H]1CC[C@H](CS(=O)(=O)N2CC[C@H](NC(=O)OC(C)(C)C)C2)CC1` [Example 26, tert-butyl {(3S)-1-[({trans-4-[methyl(7H-pyrrolo[2,3-d]pyrimidin-4-yl)amino]-cyclohexyl}methyl)sulfonyl]-pyrrolidin-3-yl}carbamate], the pIC50 was 6.64 at JAK3, 7.32 on JAK2 and 8.84 on JAK1.

For the compound `CN(c1ncnc2[nH]ccc12)[C@H]1CC[C@H](CS(=O)(=O)N2C[C@@H](O)[C@H](c3ccccc3)C2)CC1` [Example 29, (3S,4R)-1-[({trans-4-[methyl(7H-pyrrolo[2,3-d]pyrimidin-4-yl)amino]-cyclohexyl}methyl)sulfonyl]-4-phenylpyrrolidin-3-ol], the values for the pIC50 at JAK3, at JAK2 and at JAK1 were 6.82, 7.82 and 8.28, respectively.

As for `CN(c1ncnc2[nH]ccc12)[C@H]1CC[C@H](CS(=O)(=O)N2CC[C@@H](CO)C2)CC1` [Example 30, {(3R)-1-[({trans-4-[methyl(7H-pyrrolo[2,3-d]pyrimidin-4-yl)amino]-cyclohexyl}methyl)sulfonyl]-pyrrolidin-3-yl}-methanol], the values for the negative-log IC50 (pIC50) on JAK3, at JAK2 and on JAK1 were 6.95, 8.08 and 8.51, respectively.

Take `CN(c1ncnc2[nH]ccc12)[C@H]1CC[C@H](CS(=O)(=O)N2CC[C@H](CO)C2)CC1` [Example 31, {(3S)-1-[({trans-4-[methyl(7H-pyrrolo[2,3-d]pyrimidin-4-yl)amino]-cyclohexyl}methyl)sulfonyl]-pyrrolidin-3-yl}-methanol]: the pIC50 at JAK3 is 6.70; at JAK2 it was 7.84; at JAK1 it was 8.54.

Consider `CN(c1ncnc2[nH]ccc12)[C@H]1CC[C@H](CS(=O)(=O)N2CC[C@H](CC#N)C2)CC1` [Example 32, {(3R)-1-[({trans-4-[methyl(7H-pyrrolo[2,3-d]pyrimidin-4-yl)amino]-cyclohexyl}methyl)sulfonyl]-pyrrolidin-3-yl}-acetonitrile], for which the negative-log IC50 (pIC50) at JAK3 is 6.45; at JAK2 it was 7.56; at JAK1, 8.42.

`CN(c1ncnc2[nH]ccc12)[C@H]1CC[C@H](CS(=O)(=O)N2C[C@H](CO)[C@H](S(C)(=O)=O)C2)CC1` [Example 33, [(3R,4S)-1-[({trans-4-[methyl(7H-pyrrolo[2,3-d]pyrimidin-4-yl)amino]-cyclohexyl}methyl)sulfonyl]-4-(methylsulfonyl)-pyrrolidin-3-yl]methanol]: the negative logarithm of the IC50 (pIC50) at JAK3 was 6.56; at JAK2, 7.49; on JAK1, 7.98.

For `CN(c1ncnc2[nH]ccc12)[C@H]1CC[C@H](CS(=O)(=O)N2CC[C@@H](F)C2)CC1` [Example 34, N-[trans-4-({[(3R)-3-fluoropyrrolidin-1-yl]sulfonyl}methyl)cyclo-hexyl]-N-methyl-7H-pyrrolo-[2,3-d]pyrimidin-4-amine], the pIC50 on JAK3 is 6.66; at JAK2, 7.78; at JAK1, 8.13.

Turning to `CN(c1ncnc2[nH]ccc12)[C@H]1CC[C@H](CS(=O)(=O)N2CC[C@@H](CC#N)C2)CC1` [Example 35, {(3S)-1-[({trans-4-[methyl(7H-pyrrolo[2,3-d]pyrimidin-4-yl)amino]cyclohexyl}methyl)-sulfonyl]pyrrolidin-3-yl}acetonitrile], the pIC50 at JAK3 is 6.35; on JAK2, 7.28; at JAK1, 7.95.

`CN(c1ncnc2[nH]ccc12)[C@H]1CC[C@H](CS(=O)(=O)N2C[C@@H](O)[C@H](C#N)C2)CC1` [Example 36, (3S,4S)-4-hydroxy-1-[({trans-4-[methyl(7H-pyrrolo[2,3-d]pyrimidin-4-yl)amino]cyclohexyl}methyl)-sulfonyl]pyrrolidine-3-carbonitrile]: the negative logarithm of the IC50 (pIC50) at JAK3 was 6.91; at JAK2, 7.73; on JAK1 it was 8.27.

For `CC1CN(S(=O)(=O)C[C@H]2CC[C@H](N(C)c3ncnc4[nH]ccc34)CC2)CCN1C` (stereo partly drawn) [Example 38, N-(trans-4-{[(3,4-dimethylpiperazin-1-yl)-sulfonyl]methyl}cyclo-hexyl)-N-methyl-7H-pyrrolo-[2,3-d]pyrimidin-4-amine], the negative-log IC50 (pIC50) on JAK3 was 5.72; at JAK2, 6.90; on JAK1, 7.94.

`CN(c1ncnc2[nH]ccc12)[C@H]1CC[C@@H](CS(=O)(=O)N2CCC[C@H](C#N)C2)CC1` [Example 39, 1-[({cis-4-[methyl(7H-pyrrolo[2,3-d]pyrimidin-4-yl)amino]cyclohexyl}-methyl)sulfonyl]piperidine-3-carbonitrile]: the negative logarithm of the IC50 (pIC50) was 6.41 at JAK3, 7.12 on JAK2 and 7.63 on JAK1.

Regarding `CN(c1ncnc2[nH]ccc12)[C@H]1CC[C@H](CS(=O)(=O)N2CCC[C@@H](O)C2)CC1` [Example 40, (3R)-1-[({trans-4-[methyl(7H-pyrrolo[2,3-d]pyrimidin-4-yl)amino]-cyclohexyl}methyl)sulfonyl]piperidin-3-ol], the pIC50 at JAK3 is 6.98; at JAK2, 8.09; at JAK1, 8.84.

As for `COC1CCN(S(=O)(=O)C[C@H]2CC[C@H](N(C)c3ncnc4[nH]ccc34)CC2)CC1` [Example 41, N-(trans-4-{[(4-methoxy-piperidin-1-yl)-sulfonyl]-methyl}cyclohexyl)-N-methyl-7H-pyrrolo[2,3-d]-pyrimidin-4-amine], the figures for the pIC50 on JAK3, at JAK2 and at JAK1 were 6.20, 6.97 and 7.66, respectively.
